The record followed here is patent US7981913B2, “Isophthalates as beta-secretase inhibitors” (Bristol-Myers Squibb Company, priority 2005, dated 2011).

In the assay the target is T1, BACE1 enzyme (Homo sapiens, UniProt P56817).
T1 construct: The HEK293-9B.A1 cell line, which overexpresses the BACE1 enzyme, was derived from HEK293 cells; endogenous in cells; washed 48,000 x g membrane pellet / cell homogenate
Kind of assay: Radioligand displacement assay with a radiolabeled BACE inhibitor on HEK293-9B.A1 cell homogenate. The conditions noted are these: displacement of 1 nM tritiated radioligand, HEK293-9B.A1 homogenate, pH 5.0, 1.5 hr at 25° C.; read-out: Activity Rating (based on IC50 values). The class given is binding. An excerpt: There are a number of methods by which inhibitors of the BACE enzyme can be identified experimentally. The enzyme can be obtained from membrane samples from natural tissues or cultured cells or can be expressed recombinantly in a host cell by well known methods of molecular biology. The whole enzyme or a portion thereof can be expressed, for example, in bacterial, insect or mammalian cells to obtain a catalytically active enzyme species. The enzymatic activity and/or ligand binding capability of the enzyme can be assessed within these membrane samples, or the enzyme can be purified to varying extents. As an illustrative example, the nucleic acid sequence encoding the pro and catalytic domains of human BACE can be appended on the 5′ end with an untranslated and signal sequence from the gene for acetylcholinesterase, and on the 3′ end with a sequence encoding a poly-histidine tag. This cDNA can then be expressed in Drosophila melanogaster S2 cells in which the signal and pro sequences of the transcribed/translated protein are removed by cellular proteases and the catalytic domain, appended by a C-terminal poly-histidine tag, is secreted out into the cellular medium. The enzyme can then be purified from the culture medium by nickel affinity chromatography by methods well known to those trained in the art [Mallender, W. et al., (2001) “Characterization of recombinant, soluble beta-secretase from an insect cell expression system.” Mol. Pharmacol. 59: 619-626]. Similar strategies for expressing and purifying various forms of BACE in bacterial, mammalian and other cell types would be known to one skilled in the art. A preferred method for determining the potency of a test compound in binding to the BACE enzyme is by monitoring the displacement of a suitable radioligand.
Radioligand displacement assays with a radiolabeled BACE inhibitor (WO 2004 013098, compound 3, where the methoxy group is substituted for C(^3H)3) were carried out using standard methods (Keen, M. (1999) in Receptor Binding Techniques (Walker, J. M. ed) p. 106 Humana Press, Totowa, N.J.). The HEK293-9B.A1 cell line, which overexpresses the BACE1 enzyme, was derived from HEK293 cells (Simmons, N. L. (1990) A cultured human renal epithelioid cell line responsive to vasoactive intestinal peptide. Exp. Physiol. 75:309-19.) by RAGE™ (Harrington, J. J. et al. (2001) Creation of genome-wide protein expression libraries using random activation of gene expression. Nat. Biotechnol. 19:440-5; U.S. Pat. Nos. 6,410,266 and 6,361,972). […]
(Loss of bound radioactivity is the signal in a displacement assay; it reports binding, not function.)

T1 sequence (P56817 46-501): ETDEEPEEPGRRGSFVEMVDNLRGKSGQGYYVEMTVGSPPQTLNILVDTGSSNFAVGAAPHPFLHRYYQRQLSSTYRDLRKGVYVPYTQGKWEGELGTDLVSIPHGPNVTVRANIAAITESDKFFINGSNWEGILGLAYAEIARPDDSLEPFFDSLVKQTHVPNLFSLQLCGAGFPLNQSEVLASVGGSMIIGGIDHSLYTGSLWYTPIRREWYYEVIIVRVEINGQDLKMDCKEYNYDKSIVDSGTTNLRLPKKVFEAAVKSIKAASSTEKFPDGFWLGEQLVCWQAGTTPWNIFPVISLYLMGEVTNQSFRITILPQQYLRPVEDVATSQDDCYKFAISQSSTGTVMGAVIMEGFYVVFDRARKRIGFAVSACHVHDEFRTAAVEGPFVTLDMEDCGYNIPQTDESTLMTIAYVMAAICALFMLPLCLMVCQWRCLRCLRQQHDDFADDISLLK

For the compound `CCCCN(C)C(=O)c1cccc(C(=O)N[C@@H](Cc2cc(F)cc(F)c2)[C@H](O)[C@H]2CC(c3ccccc3)CN2)c1` (stereo partly drawn) [Example 7, N^1-butyl-N^3-((1R,2S)-3-(3,5-difluorophenyl)-1-hydroxy-1-((2R)-4-phenylpyrrolidin-2-yl)propan-2-yl)-N^1-methylisophthalamide], the IC50 lay within 100 to 1000 nM. With `CCCO[C@H]1CN[C@@H]([C@@H](O)[C@H](Cc2cc(F)cc(F)c2)NC(=O)c2cc(C(=O)N3CCC[C@@H]3COC)cc(-c3ncco3)c2)C1` [Example 11, N-((1R,2S)-3-(3,5-difluorophenyl)-1-hydroxy-1-((2R,4R)-4-propoxypyrrolidin-2-yl)propan-2-yl)-3-((R)-2-(methoxymethyl)pyrrolidine-1-carbonyl)-5-(oxazol-2-yl)benzamide] the figure was below 100 nM; with `CCCO[C@H]1CN[C@@H]([C@@H](O)[C@H](Cc2cc(F)cc(F)c2)NC(=O)c2cc(C(=O)N(CCC)CCC)cc(-c3ncco3)c2)C1` [Example 12, N^1-((1R,2S)-3-(3,5-difluorophenyl)-1-hydroxy-1-((2R,4R)-4-propoxypyrrolidin-2-yl)propan-2-yl)-5-(oxazol-2-yl)-N^3,N^3-dipropylisophthalamide], below 100 nM; with `CCCN(CCC)C(=O)c1cc(C(=O)N[C@@H](Cc2ccccc2)[C@H](O)[C@H]2C[C@@H](S(=O)(=O)CCC)CN2)cc(-c2ncco2)c1` [Example 17, N^1-((1R,2S)-1-hydroxy-3-phenyl-1-((2R,4R)-4-(propylsulfonyl)pyrrolidin-2-yl)propan-2-yl)-5-(oxazol-2-yl)-N^3,N^3-dipropylisophthalamide], below 100 nM.

As a reminder, the IC50 is the concentration that gives 50% inhibition.
